Measurements: ChEMBL document CHEMBL5120966, “Spicatulides A-G, Phenolic-Monoterpenoid Hybrids from Chloranthus spicatus” (J Nat Prod, 2022)

Key:
HepG2 [1] = assay: Inhibition of lipogenesis in human HepG2 cells assessed as reduction in sterol synthesis; format: functional, cell-based; settings: dose 12.5-50 µM, DDE = dose-dependent effect
HepG2 [2] = assay: Inhibition of lipogenesis in human HepG2 cells assessed as reduction in fatty acids synthesis; format: functional, cell-based; settings: dose 0.1-1 µM, DDE = dose-dependent effect

Row | Compound | dose-dependent inhibition (qualitative) (HepG2 [1]) | inhibition (HepG2 [2])
1 | COC(=O)[C@@]1(O)c2cc(O)cc(C/C=C(\C)CCC=C(C)C)c2O[C@@]2(C)C=C[C@H](C(C)C)C[C@@H]12 | Dde | –
2 | COC(=O)Cc1cc(O)cc2c1O[C@@](C)(CCC=C(C)C)C=C2 | Dde | –
3 | COC(=O)C[C@@]1(C/C=C(\C)CCC=C(C)C)CC(=O)C=C[C@@H]1O | Dde | Dde
4 | COC(=O)[C@H]1c2cc(O)cc(C/C=C(\C)CCC=C(C)C)c2O[C@@]2(C)[C@@H](O)C=C(C(C)C)C[C@@H]12 | Dde | –
